Holding throughout (format): biochemical
Assay [1] deals with EPH-A4 (Homo sapiens, UniProt P54764). The experiment in a line: Kinome profiling EPH-A4. Conditions: read-out: Inhibitory activity EPH-A4; for inhibition at 0.1 µM: 100 nM. How it is done:
(§1) . The kinome-wide selectivity was determined following the methods previously reported by Mohedas et al., ACS Chem Biol 2013, 8, 1291-1302 and Sanvitale et al., PLoS One 2013, 8, e62721.

Assay [2] concerns the target PAR-1Bα (Homo sapiens, UniProt Q7KZI7). The experiment in a line: Kinome profiling PAR-1Bα. Conditions: read-out: Inhibitory activity PAR-1Bα; for inhibition at 0.1 µM: 100 nM. How it is done: as §1
Assay [3] addresses PYK2 (Homo sapiens, UniProt Q14289). The experiment in a line: Kinome profiling PYK2. Conditions: read-out: Inhibitory activity PYK2; for inhibition at 0.1 µM: 100 nM. How it is done:
as §1

Assay [4] concerns the target T1, MST2 (Homo sapiens, UniProt Q13188).
T1 sequence (Q13188 1-491): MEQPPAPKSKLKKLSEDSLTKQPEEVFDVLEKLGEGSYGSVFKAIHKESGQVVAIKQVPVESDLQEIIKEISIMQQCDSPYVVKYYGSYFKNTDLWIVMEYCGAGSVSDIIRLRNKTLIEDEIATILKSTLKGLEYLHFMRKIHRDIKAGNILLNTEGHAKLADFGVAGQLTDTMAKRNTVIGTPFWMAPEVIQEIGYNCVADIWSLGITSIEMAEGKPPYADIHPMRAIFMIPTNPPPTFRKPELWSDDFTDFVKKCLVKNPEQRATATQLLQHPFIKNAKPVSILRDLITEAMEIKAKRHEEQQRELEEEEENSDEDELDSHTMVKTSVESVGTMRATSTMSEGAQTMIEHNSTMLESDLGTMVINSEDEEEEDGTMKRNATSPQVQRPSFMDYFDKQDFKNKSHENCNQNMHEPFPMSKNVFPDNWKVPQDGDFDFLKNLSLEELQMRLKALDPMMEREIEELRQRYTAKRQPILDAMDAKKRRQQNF
Briefly: Kinome profiling MST2. Conditions: read-out: Inhibitory activity MST2; for inhibition at 0.1 µM: 100 nM. The protocol:
as §1

Assay [5] has as its target JNK2 (Homo sapiens, UniProt P45984). The experiment in a line: Kinome profiling JNK2. Conditions: read-out: Inhibitory activity JNK2; for inhibition at 0.1 µM: 100 nM. The protocol: as §1
For assay [6], the target named is T2, PKC-1 (Homo sapiens, UniProt P41743).
T2 sequence (P41743 2-596 limits assumed): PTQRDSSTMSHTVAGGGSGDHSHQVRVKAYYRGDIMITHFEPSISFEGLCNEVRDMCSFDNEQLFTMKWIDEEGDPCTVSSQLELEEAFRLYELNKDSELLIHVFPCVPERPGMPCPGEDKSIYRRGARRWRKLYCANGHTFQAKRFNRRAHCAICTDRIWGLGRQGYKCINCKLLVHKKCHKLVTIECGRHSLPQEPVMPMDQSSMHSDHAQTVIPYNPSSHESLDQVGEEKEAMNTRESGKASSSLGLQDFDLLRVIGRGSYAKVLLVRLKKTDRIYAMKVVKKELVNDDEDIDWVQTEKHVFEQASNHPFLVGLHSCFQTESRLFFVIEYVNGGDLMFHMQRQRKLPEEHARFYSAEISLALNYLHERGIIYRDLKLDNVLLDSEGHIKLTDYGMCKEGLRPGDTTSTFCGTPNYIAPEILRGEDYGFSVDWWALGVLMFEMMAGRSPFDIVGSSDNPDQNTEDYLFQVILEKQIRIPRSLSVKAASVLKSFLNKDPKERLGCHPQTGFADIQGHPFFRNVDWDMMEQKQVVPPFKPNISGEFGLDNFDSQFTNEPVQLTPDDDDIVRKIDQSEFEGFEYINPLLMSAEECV
Briefly: Kinome profiling PKC-1. Conditions: read-out: Inhibitory activity PKC-1; for inhibition at 0.1 µM: 100 nM. The protocol: as §1

The target in assay [7] is PAK2 (Homo sapiens, UniProt Q13177). The experiment in a line: Kinome profiling PAK2. Conditions: read-out: Inhibitory activity PAK2; for inhibition at 0.1 µM: 100 nM. The protocol: as §1
The target in assay [8] is PKC-β1 (Homo sapiens, UniProt P05771). Briefly: Kinome profiling PKC-β1. Conditions: read-out: Inhibitory activity PKC-β1; for inhibition at 0.1 µM: 100 nM. How it is done:
as §1

The target of assay [9] is CLK2 (Homo sapiens, UniProt P49760). Briefly: Kinome profiling CLK2. Conditions: read-out: Inhibitory activity CLK2; for inhibition at 0.1 µM: 100 nM. The protocol:
as §1

Assay [10] addresses MAPKAPK2 (Homo sapiens, UniProt P49137). The experiment in a line: Kinome profiling MAPKAPK2. Conditions: read-out: Inhibitory activity MAPKAPK2; for inhibition at 0.1 µM: 100 nM. How it is done: as §1

Molecules are shown by their SMILES.

Sequence of JNK2 (P45984 whole entry): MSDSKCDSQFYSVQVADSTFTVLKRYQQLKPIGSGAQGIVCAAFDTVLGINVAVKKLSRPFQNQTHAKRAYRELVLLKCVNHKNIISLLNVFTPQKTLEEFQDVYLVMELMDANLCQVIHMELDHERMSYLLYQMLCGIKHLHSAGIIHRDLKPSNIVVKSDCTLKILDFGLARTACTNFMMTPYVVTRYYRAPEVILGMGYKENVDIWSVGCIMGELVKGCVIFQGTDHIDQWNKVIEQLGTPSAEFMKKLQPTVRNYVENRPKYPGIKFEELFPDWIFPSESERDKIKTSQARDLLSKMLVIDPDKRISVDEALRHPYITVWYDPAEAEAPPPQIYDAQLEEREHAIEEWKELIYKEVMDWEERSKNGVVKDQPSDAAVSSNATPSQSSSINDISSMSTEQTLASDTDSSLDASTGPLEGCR
Sequence of MAPKAPK2 (P49137 whole entry): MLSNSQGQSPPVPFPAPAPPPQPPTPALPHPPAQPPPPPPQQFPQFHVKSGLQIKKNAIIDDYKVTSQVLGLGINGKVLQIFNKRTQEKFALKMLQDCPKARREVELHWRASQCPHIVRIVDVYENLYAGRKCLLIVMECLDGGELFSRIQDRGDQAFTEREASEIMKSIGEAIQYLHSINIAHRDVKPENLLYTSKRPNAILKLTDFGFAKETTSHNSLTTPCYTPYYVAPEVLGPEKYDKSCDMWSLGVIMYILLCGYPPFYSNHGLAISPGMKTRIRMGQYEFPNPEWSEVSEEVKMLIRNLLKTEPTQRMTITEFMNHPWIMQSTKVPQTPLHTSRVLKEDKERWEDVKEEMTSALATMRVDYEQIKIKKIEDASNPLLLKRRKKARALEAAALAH
Sequence of PYK2 (Q14289 whole entry): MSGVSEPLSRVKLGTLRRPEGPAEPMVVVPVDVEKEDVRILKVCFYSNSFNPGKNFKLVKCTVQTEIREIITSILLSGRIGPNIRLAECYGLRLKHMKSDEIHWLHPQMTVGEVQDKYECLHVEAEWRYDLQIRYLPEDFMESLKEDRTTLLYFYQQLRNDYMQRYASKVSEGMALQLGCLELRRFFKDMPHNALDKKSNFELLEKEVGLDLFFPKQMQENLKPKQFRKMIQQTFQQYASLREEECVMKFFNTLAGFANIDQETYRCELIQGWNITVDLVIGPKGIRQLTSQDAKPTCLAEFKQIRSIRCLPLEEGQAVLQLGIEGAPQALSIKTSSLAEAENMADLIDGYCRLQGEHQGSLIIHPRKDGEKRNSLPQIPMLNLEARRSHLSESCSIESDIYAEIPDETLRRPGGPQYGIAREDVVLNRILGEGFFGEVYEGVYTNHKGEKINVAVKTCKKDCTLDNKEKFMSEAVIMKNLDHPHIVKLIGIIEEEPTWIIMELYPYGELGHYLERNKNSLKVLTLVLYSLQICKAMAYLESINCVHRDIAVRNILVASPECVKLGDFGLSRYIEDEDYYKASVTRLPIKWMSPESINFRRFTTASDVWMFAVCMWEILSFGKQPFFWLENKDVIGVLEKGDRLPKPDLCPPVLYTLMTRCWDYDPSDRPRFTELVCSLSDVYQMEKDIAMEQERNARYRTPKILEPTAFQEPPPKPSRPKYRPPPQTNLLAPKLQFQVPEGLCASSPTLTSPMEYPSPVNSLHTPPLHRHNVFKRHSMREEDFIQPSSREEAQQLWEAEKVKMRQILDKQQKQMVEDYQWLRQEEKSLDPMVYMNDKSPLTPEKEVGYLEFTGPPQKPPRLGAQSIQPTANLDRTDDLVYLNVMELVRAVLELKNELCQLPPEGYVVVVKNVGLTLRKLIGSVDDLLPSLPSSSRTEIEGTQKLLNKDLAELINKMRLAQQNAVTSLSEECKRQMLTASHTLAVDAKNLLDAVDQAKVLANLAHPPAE
Sequence of PAR-1Bα (Q7KZI7 1-725 isoform Q7KZI7-4): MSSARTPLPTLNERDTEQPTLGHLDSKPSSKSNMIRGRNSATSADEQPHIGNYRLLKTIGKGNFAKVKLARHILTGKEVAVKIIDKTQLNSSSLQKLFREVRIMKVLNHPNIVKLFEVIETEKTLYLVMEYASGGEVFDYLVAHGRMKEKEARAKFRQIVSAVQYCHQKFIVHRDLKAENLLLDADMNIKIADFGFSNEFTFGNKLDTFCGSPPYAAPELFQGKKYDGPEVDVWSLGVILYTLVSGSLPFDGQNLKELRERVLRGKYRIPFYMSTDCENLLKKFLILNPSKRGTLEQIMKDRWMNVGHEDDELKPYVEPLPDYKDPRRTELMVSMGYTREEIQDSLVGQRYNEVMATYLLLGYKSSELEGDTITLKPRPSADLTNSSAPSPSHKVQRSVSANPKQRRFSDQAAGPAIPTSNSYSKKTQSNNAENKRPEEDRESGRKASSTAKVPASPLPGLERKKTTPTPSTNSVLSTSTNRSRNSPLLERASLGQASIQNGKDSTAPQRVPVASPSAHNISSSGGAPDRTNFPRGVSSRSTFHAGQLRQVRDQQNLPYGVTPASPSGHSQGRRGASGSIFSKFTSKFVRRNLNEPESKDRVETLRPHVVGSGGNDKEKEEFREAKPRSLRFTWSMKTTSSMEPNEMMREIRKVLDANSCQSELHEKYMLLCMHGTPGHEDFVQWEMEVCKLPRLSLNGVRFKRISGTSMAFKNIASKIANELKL
Sequence of EPH-A4 (P54764 20-986): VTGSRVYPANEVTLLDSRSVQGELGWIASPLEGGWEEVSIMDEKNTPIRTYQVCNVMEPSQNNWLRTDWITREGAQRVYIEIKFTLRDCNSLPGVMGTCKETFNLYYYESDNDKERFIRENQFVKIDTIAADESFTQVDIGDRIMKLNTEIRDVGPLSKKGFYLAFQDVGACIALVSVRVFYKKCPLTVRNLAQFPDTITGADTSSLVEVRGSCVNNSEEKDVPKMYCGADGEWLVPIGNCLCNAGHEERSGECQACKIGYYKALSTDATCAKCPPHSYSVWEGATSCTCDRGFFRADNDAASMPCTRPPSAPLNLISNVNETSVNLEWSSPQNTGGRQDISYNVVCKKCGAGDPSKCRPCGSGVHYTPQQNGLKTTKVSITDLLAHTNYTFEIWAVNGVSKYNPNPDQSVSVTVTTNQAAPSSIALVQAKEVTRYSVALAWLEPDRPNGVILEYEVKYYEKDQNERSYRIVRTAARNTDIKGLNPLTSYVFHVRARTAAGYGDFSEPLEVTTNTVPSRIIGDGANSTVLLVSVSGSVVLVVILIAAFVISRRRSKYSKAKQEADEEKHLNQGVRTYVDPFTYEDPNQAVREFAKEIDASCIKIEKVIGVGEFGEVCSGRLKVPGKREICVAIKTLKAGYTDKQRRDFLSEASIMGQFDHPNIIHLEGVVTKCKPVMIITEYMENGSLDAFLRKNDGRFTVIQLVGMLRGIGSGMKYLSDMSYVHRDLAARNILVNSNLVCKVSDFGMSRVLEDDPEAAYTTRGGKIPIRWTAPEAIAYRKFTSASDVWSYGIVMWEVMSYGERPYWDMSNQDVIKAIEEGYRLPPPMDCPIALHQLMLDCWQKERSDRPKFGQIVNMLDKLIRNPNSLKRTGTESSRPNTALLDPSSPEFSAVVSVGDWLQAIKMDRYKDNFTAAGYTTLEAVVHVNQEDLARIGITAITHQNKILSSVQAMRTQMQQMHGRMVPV
Sequence of PAK2 (Q13177 whole entry): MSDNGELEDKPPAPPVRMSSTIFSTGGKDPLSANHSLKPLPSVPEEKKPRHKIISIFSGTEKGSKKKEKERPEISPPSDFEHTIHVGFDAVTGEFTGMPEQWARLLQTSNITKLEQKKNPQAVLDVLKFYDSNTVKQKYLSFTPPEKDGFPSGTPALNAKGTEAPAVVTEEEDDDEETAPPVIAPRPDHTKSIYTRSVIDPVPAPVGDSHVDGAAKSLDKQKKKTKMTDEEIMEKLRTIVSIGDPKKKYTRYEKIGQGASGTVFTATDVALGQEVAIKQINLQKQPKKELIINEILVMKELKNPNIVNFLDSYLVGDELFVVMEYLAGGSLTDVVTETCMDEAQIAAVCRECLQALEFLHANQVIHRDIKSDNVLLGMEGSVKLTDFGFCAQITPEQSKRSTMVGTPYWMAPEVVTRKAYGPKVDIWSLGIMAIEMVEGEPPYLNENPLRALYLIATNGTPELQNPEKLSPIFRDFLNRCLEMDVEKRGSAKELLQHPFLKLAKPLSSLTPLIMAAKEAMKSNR
Sequence of PKC-β1 (P05771 whole entry): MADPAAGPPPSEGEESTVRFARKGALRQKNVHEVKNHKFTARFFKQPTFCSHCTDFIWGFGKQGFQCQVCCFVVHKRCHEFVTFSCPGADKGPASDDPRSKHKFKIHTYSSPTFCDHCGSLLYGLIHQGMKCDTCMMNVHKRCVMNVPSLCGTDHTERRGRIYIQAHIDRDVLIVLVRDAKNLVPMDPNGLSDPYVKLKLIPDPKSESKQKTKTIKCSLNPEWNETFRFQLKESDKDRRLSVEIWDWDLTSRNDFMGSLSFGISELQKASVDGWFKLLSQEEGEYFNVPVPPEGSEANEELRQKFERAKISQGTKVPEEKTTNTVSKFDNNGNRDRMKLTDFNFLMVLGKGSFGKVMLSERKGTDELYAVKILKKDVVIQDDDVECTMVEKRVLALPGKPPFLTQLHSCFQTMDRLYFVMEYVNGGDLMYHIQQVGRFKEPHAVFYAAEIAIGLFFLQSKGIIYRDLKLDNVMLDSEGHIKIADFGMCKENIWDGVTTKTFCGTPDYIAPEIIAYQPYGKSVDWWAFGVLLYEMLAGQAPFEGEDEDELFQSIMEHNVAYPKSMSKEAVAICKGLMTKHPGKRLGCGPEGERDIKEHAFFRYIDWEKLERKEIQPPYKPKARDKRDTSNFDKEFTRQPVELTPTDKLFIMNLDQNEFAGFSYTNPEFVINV

In the case of `COc1cc(-c2cc(-c3ccc(N4CCNCC4)cc3)cnc2C)cc(OC)c1OC` [Compound 10, 1-(4-(6-methyl-5-(3,4,5-trimethoxyphenyl)pyridin-3-yl)phenyl)piperazine], the inhibition at 0.1 µM in [1] came out at 7%; in [2], 2%; in assay [3], 1%; in assay [4], 0%; in assay [5], 0%; in [6], 12%. For the same compound, the inhibition at 0.1 µM in assay [7] stood at 0%; in [8] it was 0%; in assay [9], 2%; in assay [10] it was 4%. The inhibition at 1 µM in assay [1] came to 5%; in [2] it was 4%; in assay [3], 5%; in assay [4], 1%; in [5], 2%; in [6], 3%. Besides, the inhibition at 1 µM in assay [7] is 1%; in assay [8] it was 1%; in assay [9], 2%; in assay [10], 4%.
`COc1cc(-c2cc(-c3ccc(N4CCNCC4)cc3)cnc2N)cc(OC)c1OC` [Compound 15, 5-(4-(piperazin-1-yl)phenyl)-3-(3,4,5-trimethoxyphenyl)pyridin-2-amine]: the inhibition at 0.1 µM was -1% in [1]; 1% in assay [2]; 10% in assay [3]; 3% in [4]; 2% in assay [5]; 1% in assay [6]. The inhibition at 0.1 µM in assay [7] turned out to be 0%; in [8] it was 0%; in [9] it was 1%; in assay [10] it was 0%. Further, the inhibition at 1 µM turned out to be 45% in [1]; 19% in [2]; 14% in assay [3]; 4% in assay [4]; 3% in assay [5]; 1% in [6]. For the same compound, the inhibition at 1 µM in assay [7] is 1%; in assay [8] it was 0%; in [9], -1%; in assay [10], -4%.

Source of the values: patent publication US20170190705A1, “Compositions and Methods for Inhibiting BMP” (THE BRIGHAM AND WOMAN'S HOSPITAL, INC., priority 2014, published 2017).
